Experimental data: patent US7981903B2, “2-[2-{phenylamino}-1H-pyrrolo[2,3-D]pyrimidin-4-yl)amino] benzamide derivatives as IGF-1R inhibitors for the treatment of cancer” (GlaxoSmithKline LLC, priority 2007, dated 2011)
Several values for one entry are separate records, joined by “and”; a condition that tells them apart may be missing. Identical values can stand only once.

Key:
Colo205 = experiment: Inhibition of cell proliferation (CellTiter-Glo or InCell analyzer), Colo205; type: cell-based; details: Homo sapiens, COLO 205, 72 h / 3 days, values given as IC50 category
Experimental: (§1) Cell proliferation was measured by either CellTiter-Glo (measures cellular ATP level as a surrogate for total cell number) or by InCell analyzer (counts number of nuclei as a measure of cell number).
(§2) For CellTiter-Glo assay, exponentially growing cell lines of different tumor origins, cultured in appropriate media containing 10% fetal bovine serum at 37° C. in a 5% CO2 incubator, were plated at low density (less than 2000cells/well) in 96-well plates. Twenty four hours post-plating, cells were treated with different concentrations of test compounds ranging from 30 uM to 1.5 nM. Several wells were left untreated as a control. Seventy two hours post-treatment, cell numbers were determined using 50-100 ul per well of CellTiter-Glo (Promega #G7573). Plates were incubated at 37° C. for 30 minutes and the chemiluminescent signal was read on the Victor V or Envison 2100 reader.
(§3) For InCell Analyser assay, various cell lines of different tumor origins were grown to 70-80% confluency in appropriate culture media containing 10% fetal bovine serum at 37° C. in a 5% CO2 incubator. On day −1, cells were seeded at 2 densities in 384-well plates and incubated at 37° C. overnight. Stock compound plates were prepared in advance which contained dimethyl sulfoxide (DMSO) alone and a 9-point half-log decreasing dose range of the compound in DMSO. The compound plates were stored at −80° C. and each plate was only thawed once and used. On day 0, the main assay plates received compound or DMSO via a sonic delivery system (ECHO). The highest final concentration of compound of the dose range in the culture plates was 10 uM. These plates were cultured at 37° C. for 3 days. […] On day 3, the compound treated plates were stained and fixed to measure proliferation, apoptosis, and mitotic index using an InCelL1000 analyser. A nuclear stain was used to identify cells in the wells. By counting the number of nuclei, the proliferation index of compound treated groups were calculated as a percentage relative to the DMSO control, which was set to 100%. The IC50 values were calculated using model 205 in ExcelFit.
(§4) IC50 (nM) values for compounds of select examples were categorized by relative inhibition of cell proliferation.

human IGF1R (hIGF1R) = molecular target: T1, human IGF1R (hIGF1R) (Homo sapiens, UniProt P08069); experiment: TR-FRET kinase assay of purified hIGF1R; type: biochemical; details: activated hIGF1R 0.5 nM, 10 μM ATP, values given as pIC50 category, read-out: IGF-1R pIC50 (converted)
T1 construct: containing amino acid residues 957-1367 of human IGF1R; made in house; host or cells: Sf9 cells (baculovirus)

NCI-H929 = experiment: Inhibition of cell proliferation (CellTiter-Glo or InCell analyzer), NCI-H929; type: cell-based; details: Homo sapiens, 72 h / 3 days, values given as IC50 category
Experimental: as §1, §2, §3, §4

[1] = molecular target: T2, NIH-3T3 cells overexpressing human IR (Homo sapiens, UniProt P06213); experiment: IR cellular autophosphorylation (DELFIA); type: cell-based; details: 2 h compound, insulin 3 ug/ml for 15 minutes, IC50 category
T2 construct: expressed in transfected cells; host or cells: NIH-3T3 (mouse fibroblasts)
In short: (§5)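 Receptor autophosphorylation measured by DELFIA, capturing IGF-1R or IRβ and detecting with europium anti-pTyr, reported as percent of IGF-1- or insulin-stimulated signal. Compounds (30 uM to 1.5 nM) added 2 h before ligand, then 15 min stimulation (IGF-1 30 ng/ml or insulin 3 ug/ml).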

[2] = molecular target: T3, NIH-3T3 cells overexpressing human IGF-1R (Homo sapiens, UniProt P08069); experiment: IGF-1R cellular autophosphorylation (DELFIA); type: cell-based
T3 construct: expressed in transfected cells; host or cells: NIH-3T3 (mouse fibroblasts)
In short: as §5

human IR (hIR) = molecular target: T4, human IR (hIR) (Homo sapiens, UniProt P06213); experiment: TR-FRET kinase assay of purified hIR; type: biochemical; details: activated hIR 0.5 nM, 10 μM ATP, values given as pIC50 category
T4 construct: containing amino acid residues 979-1382 of human IR; made in house; host or cells: Sf9 cells (baculovirus), same process as hIGF1R

ALK = ALK (Homo sapiens, UniProt Q9UM73); experiment: ALK enzyme assay (HTRF); type: biochemical; details: 0.25 nM ALK, 15.0 μM ATP, values given as pIC50 category
In short: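 Final compound range 0.00017 to 10 μM (twelve 1:3 dilutions). Kinase reaction with ATP and biotinylated synthetic peptide runs 120 min at 20° C, stopped with EDTA; phosphotyrosine detected by HTRF after 60 min. Inhibition referenced to DMSO (1%) and EDTA (0.1 M) controls, curve-fitted.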

T1 sequence (P08069 957-1367): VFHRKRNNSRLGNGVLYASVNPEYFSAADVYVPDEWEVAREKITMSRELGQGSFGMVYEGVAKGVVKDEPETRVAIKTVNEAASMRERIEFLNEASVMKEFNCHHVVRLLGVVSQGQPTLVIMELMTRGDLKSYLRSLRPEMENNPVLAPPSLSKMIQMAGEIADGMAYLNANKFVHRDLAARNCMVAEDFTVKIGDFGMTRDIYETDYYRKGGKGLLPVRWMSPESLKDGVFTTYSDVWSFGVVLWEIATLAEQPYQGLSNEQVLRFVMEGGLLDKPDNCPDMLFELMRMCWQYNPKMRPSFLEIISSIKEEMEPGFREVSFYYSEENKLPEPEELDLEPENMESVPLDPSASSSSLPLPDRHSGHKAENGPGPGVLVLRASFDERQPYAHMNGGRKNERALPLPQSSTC
T2 sequence (P06213 28-1382): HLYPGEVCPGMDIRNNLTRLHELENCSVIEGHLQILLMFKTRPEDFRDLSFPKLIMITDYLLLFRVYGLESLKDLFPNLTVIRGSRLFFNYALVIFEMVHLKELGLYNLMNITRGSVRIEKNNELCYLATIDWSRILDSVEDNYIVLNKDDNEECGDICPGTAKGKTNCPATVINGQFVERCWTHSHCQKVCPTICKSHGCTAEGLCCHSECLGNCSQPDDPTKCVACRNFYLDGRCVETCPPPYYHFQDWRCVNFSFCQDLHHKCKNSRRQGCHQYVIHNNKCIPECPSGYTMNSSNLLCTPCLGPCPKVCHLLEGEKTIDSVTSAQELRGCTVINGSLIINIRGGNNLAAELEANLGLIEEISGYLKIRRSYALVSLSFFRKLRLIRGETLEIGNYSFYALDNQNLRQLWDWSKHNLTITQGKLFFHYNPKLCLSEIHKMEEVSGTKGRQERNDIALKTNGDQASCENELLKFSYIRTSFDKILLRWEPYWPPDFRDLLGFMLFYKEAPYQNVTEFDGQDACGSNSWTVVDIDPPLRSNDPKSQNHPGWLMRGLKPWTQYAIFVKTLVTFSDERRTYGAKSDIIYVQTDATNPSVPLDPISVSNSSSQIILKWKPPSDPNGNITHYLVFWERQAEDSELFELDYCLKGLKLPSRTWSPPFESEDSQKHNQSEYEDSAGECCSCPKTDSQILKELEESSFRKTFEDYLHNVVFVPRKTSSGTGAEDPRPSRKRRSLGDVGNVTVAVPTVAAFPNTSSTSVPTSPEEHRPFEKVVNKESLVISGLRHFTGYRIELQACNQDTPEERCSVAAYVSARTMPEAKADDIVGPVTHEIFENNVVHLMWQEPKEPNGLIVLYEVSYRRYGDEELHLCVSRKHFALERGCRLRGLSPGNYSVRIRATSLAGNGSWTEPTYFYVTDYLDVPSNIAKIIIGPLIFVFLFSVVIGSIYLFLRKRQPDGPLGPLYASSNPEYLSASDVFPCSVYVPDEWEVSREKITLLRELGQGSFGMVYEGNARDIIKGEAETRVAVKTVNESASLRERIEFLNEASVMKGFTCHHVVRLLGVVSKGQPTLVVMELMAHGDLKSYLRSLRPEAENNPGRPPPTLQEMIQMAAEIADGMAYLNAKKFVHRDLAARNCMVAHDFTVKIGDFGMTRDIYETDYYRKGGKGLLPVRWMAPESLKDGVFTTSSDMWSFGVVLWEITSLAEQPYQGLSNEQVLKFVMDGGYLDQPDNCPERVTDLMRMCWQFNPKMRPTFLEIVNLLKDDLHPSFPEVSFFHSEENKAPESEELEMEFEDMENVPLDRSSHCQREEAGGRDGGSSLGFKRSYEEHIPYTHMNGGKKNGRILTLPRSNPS
T4 sequence (P06213 979-1382): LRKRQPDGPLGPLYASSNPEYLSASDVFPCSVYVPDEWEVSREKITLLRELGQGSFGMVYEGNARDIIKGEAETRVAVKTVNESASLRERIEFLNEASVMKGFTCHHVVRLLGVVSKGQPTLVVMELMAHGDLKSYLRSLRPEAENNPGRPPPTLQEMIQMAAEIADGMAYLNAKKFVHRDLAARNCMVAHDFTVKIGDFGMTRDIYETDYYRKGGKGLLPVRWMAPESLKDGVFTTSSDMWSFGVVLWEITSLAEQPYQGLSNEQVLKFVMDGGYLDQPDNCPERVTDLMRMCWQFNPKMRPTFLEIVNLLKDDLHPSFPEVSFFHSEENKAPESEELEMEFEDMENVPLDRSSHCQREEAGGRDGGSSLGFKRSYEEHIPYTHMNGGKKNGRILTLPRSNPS
Sequence of ALK (Q9UM73 19-1620): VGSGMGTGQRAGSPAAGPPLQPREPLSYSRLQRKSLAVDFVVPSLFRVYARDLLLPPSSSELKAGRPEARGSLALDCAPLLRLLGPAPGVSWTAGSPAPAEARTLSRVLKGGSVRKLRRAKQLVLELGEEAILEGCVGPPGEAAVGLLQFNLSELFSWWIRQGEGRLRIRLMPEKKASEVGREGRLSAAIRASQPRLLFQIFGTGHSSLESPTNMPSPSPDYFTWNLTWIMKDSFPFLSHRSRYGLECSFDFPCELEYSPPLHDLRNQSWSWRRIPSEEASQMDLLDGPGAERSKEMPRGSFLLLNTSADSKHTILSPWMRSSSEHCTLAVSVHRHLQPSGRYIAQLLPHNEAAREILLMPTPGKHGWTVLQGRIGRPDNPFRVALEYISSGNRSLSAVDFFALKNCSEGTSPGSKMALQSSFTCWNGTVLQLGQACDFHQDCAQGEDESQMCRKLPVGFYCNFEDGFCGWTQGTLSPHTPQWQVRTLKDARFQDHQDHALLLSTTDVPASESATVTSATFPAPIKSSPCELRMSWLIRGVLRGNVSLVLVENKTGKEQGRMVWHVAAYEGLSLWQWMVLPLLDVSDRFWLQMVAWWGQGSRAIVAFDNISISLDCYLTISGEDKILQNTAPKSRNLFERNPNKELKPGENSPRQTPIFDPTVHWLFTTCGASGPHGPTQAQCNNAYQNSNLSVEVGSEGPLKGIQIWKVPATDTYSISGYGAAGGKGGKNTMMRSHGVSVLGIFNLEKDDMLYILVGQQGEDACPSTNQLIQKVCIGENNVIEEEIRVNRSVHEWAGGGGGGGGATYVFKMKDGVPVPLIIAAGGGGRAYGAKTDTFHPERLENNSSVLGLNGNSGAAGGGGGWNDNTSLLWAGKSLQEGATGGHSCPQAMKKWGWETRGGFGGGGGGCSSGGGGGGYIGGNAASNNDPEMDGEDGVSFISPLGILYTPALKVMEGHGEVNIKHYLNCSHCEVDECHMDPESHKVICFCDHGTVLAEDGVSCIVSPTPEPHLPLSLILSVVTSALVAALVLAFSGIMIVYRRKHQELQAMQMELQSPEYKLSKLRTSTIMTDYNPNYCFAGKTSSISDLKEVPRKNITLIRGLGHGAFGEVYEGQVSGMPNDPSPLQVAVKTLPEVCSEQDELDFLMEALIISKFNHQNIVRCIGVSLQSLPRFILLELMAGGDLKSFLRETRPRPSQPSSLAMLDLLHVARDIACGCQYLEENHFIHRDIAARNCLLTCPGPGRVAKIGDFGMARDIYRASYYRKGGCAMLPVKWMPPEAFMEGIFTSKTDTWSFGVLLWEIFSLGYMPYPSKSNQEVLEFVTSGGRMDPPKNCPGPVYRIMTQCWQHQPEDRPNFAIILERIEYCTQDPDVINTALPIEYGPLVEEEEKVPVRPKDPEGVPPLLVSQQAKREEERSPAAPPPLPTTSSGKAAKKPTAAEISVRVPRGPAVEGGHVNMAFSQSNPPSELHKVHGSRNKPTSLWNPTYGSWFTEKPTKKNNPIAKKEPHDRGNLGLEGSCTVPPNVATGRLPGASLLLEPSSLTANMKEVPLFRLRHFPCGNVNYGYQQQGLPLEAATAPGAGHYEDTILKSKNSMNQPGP
T3 sequence (P08069 31-1367): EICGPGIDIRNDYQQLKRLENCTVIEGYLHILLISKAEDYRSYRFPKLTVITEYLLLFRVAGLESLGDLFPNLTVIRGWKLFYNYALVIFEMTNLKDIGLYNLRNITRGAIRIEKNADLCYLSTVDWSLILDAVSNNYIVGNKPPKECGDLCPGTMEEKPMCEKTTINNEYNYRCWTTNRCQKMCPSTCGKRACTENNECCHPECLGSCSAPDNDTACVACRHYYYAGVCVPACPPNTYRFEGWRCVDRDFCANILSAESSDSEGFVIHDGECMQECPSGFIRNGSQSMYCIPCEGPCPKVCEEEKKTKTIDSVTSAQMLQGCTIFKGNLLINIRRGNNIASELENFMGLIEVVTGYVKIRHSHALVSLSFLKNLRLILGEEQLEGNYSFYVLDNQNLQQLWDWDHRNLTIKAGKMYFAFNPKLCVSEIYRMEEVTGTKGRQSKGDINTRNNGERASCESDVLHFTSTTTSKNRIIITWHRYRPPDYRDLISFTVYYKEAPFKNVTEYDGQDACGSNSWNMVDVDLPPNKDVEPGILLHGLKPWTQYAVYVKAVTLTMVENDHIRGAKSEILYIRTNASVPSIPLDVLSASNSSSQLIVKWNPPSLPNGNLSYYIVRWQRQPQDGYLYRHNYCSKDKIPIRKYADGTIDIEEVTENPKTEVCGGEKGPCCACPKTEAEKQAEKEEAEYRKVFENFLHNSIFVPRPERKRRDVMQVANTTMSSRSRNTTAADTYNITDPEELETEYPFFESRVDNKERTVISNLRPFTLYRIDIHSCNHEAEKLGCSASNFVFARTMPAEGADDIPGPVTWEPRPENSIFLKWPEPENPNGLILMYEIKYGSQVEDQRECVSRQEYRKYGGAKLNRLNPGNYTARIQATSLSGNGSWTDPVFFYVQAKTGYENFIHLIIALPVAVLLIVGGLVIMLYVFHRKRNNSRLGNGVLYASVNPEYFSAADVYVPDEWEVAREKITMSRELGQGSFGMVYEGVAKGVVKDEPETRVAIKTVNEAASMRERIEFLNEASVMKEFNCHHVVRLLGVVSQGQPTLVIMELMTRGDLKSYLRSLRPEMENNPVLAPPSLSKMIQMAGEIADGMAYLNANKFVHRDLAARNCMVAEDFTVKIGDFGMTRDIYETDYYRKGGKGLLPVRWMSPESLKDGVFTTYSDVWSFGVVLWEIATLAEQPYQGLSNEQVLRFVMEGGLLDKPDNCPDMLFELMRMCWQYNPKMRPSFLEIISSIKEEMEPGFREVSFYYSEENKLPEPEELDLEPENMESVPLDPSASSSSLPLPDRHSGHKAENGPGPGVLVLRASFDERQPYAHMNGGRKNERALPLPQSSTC

Structure (SMILES) | IC50 (Colo205) [nM] | IC50 (human IGF1R (hIGF1R)) [nM] | IC50 (NCI-H929) [nM] | IC50 [1] [nM] | IC50 [2] [nM] | IC50 (human IR (hIR)) [nM] | IC50 (ALK)
CCCN1CCC(c2ccc(Nc3nc(Nc4cccc(F)c4C(N)=O)c4cc[nH]c4n3)c(OC)c2)CC1 [Example 42, 2-fluoro-6-[(2-{[2-(methyloxy)-4-(1-propyl-4-piperidinyl)phenyl]amino}-1H-pyrrolo[2,3-d]pyrimidin-4-yl)amino]benzamide] | < 250 | 0.251 to 1 | < 250 | 100 to 500 | 100 to 500 | 0.251 to 1 | –
COc1cc(N2CCC(N3CCCCC3)CC2)ccc1Nc1nc(Nc2cccc(F)c2C(N)=O)c2cc[nH]c2n1 [Example 45, 2-[(2-{[4-(1,4′-bipiperidin-1′-yl)-2-(methyloxy)phenyl]amino}-1H-pyrrolo[2,3-d]pyrimidin-4-yl)amino]-6-fluorobenzamide] | 250 to 1000 | 1.26 to 3.98 | < 250 | 100 to 500 | 100 to 500 | 1.26 to 3.98 | –
COc1c(Nc2nc(Nc3cccc(F)c3C(N)=O)c3cc[nH]c3n2)ccc(N2CCN(C(C)C)CC2)c1C [Example 50, 2-fluoro-6-[(2-{[3-methyl-4-[4-(1-methylethyl)-1-piperazinyl]-2-(methyloxy)phenyl]amino}-1 H-pyrrolo[2,3-d]pyrimidin-4-yl)amino]benzamide] | > 1000 | – | 250 to 1000 | > 500 | > 500 | – | 1.26 to 3.98 nM
CNC(=O)c1c(F)cc(Cl)cc1Nc1nc(Nc2cc3c(cc2OC)CCN3C(=O)CN2CCCC2)nc2[nH]ccc12 [Example 176, 4-chloro-2-fluoro-N-methyl-6-[(2-{[5-(methyloxy)-1-(1-pyrrolidinylacetyl)-2,3-dihydro-1H-indol-6-yl]amino}-1H-pyrrolo[2,3-d]pyrimidin-4-yl)amino]benzamide] | 250 to 1000 | 0.251 to 1 | 250 to 1000 | 100 to 500 | 100 to 500 | 0.251 to 1 | –
COc1cc2ccn(CC(=O)N(C)C)c2cc1Nc1nc(Nc2cccc(F)c2C(N)=O)c2cc[nH]c2n1 [Example 196, 2-[(2-{[1-[2-(dimethylamino)-2-oxoethyl]-5-(methyloxy)-1H-indol-6-yl]amino}-1H-pyrrolo[2,3-d]pyrimidin-4-yl)amino]-6-fluorobenzamide] | – | 5.01 to 200 | > 1000 | > 500 | > 500 | – | 5.01 to 200 nM
CNC(=O)c1c(F)cccc1Nc1nc(Nc2cc3c(cc2OC)C(C)(C)CCN3C(=O)CN2CCCC2)nc2[nH]ccc12 [Example 224, 2-[(2-{[4,4-dimethyl-6-(methyloxy)-1-(1-pyrrolidinylacetyl)-1,2,3,4-tetrahydro-7-quinolinyl]amino}-1H-pyrrolo[2,3-d]pyrimidin-4-yl)amino]-6-fluoro-N-methylbenzamide] | 250 to 1000 | 0.251 to 1 | < 250 | – | – | 0.251 to 1 | 1.26 to 3.98 nM and 0.251 to 1 nM
COc1cc2c(cc1Nc1nc(Nc3cccc(F)c3C(N)=O)c3cc[nH]c3n1)NC(=O)CC2(C)C [Example 227, 2-[(2-{[4,4-dimethyl-6-(methyloxy)-2-oxo-1,2,3,4-tetrahydro-7-quinolinyl]amino}-1H-pyrrolo[2,3-d]pyrimidin-4-yl)amino]-6-fluorobenzamide] | 250 to 1000 | 1.26 to 3.98 | 250 to 1000 | – | – | 0.251 to 1 | 1.26 to 3.98 nM
CNC(=O)c1c(F)cccc1Nc1nc(Nc2cc3c(cc2OC)C(C)(C)CC(=O)N3)nc2[nH]ccc12 [Example 228, 2-[(2-{[4,4-dimethyl-6-(methyloxy)-2-oxo-1,2,3,4-tetrahydro-7-quinolinyl]amino}-1H-pyrrolo[2,3-d]pyrimidin-4-yl)amino]-6-fluoro-N-methylbenzamide] | > 1000 | 1.26 to 3.98 | 250 to 1000 | – | – | 1.26 to 3.98 | 1.26 to 3.98 nM
COc1cc2c(cc1Nc1nc(Nc3cccc(F)c3C(N)=O)c3c(F)c[nH]c3n1)N(C(=O)CN(C)C)CC2 [Example 252, 2-[(2-{[1-(N,N-dimethylglycyl)-5-(methyloxy)-2,3-dihydro-1H-indol-6-yl]amino}-5-fluoro-1H-pyrrolo[2,3-d]pyrimidin-4-yl)amino]-6-fluorobenzamide] | < 250 | 0.251 to 1 | < 250 | < 100 | < 100 | 0.251 to 1 | –

The remaining lines, values ahead:

IC50 (Colo205) [nM] | IC50 (human IGF1R (hIGF1R)) [nM] | IC50 (NCI-H929) [nM] | IC50 [1] [nM] | IC50 [2] [nM] | IC50 (human IR (hIR)) [nM] | IC50 (ALK) | Structure (SMILES)
250 to 1000 | – | < 250 | 100 to 500 | < 100 | – | 0.251 to 1 nM | COc1cc2c(cc1Nc1nc(Nc3cc(Cl)cc(F)c3C(N)=O)c3cc[nH]c3n1)N(C(=O)CN1CCCC1)CCC2 [Example 173, 4-chloro-2-fluoro-6-[(2-{[6-(methyloxy)-1-(1-pyrrolidinylacetyl)-1,2,3,4-tetrahydro-7-quinolinyl]amino}-1H-pyrrolo[2,3-d]pyrimidin-4-yl)amino]benzamide]
250 to 1000 | 1.26 to 3.98 | 250 to 1000 | – | – | 1.26 to 3.98 | 1.26 to 3.98 nM | CNC(=O)c1c(F)cccc1Nc1nc(Nc2cc3c(cc2OC)CCN3C(=O)[C@@H](C)N(C)C)nc2[nH]ccc12 [Example 195, 2-[(2-{[1-(N,N-dimethyl-D-alanyl)-5-(methyloxy)-2,3-dihydro-1H-indol-6-yl]amino}-1H-pyrrolo[2,3-d]pyrimidin-4-yl)amino]-6-fluoro-N-methylbenzamide]
> 1000 | 5.01 to 200 | 250 to 1000 | > 500 | > 500 | 5.01 to 158 | – | CNC(=O)c1c(F)cccc1Nc1nc(Nc2cc3c(cc2OC)CCCN3C(C)=O)nc2[nH]ccc12 [Example 215, 2-[(2-{[1-acetyl-6-(methyloxy)-1,2,3,4-tetrahydro-7-quinolinyl]amino}-1H-pyrrolo[2,3-d]pyrimidin-4-yl)amino]-6-fluoro-N-methylbenzamide]
> 1000 | 5.01 to 200 | 250 to 1000 | > 500 | > 500 | 5.01 to 158 | – | COc1cc2c(cc1Nc1nc(Nc3cccc(F)c3C(N)=O)c3cc[nH]c3n1)N(C(C)=O)CCC2 [Example 216, 2-[(2-{[1-acetyl-6-(methyloxy)-1,2,3,4-tetrahydro-7-quinolinyl]amino}-1H-pyrrolo[2,3-d]pyrimidin-4-yl)amino]-6-fluorobenzamide]
< 250 | 0.251 to 1 | < 250 | – | – | 0.251 to 1 | 0.251 to 1 nM | COc1cc2c(cc1Nc1nc(Nc3cccc(F)c3C(N)=O)c3cc[nH]c3n1)N(C(=O)CN1CCCC1)CCC2(C)C [Example 223, 2-[(2-{[4,4-dimethyl-6-(methyloxy)-1-(1-pyrrolidinylacetyl)-1,2,3,4-tetrahydro-7-quinolinyl]amino}-1H-pyrrolo[2,3-d]pyrimidin-4-yl)amino]-6-fluorobenzamide]
< 250 | 0.251 to 1 | < 250 | – | – | 0.251 to 1 | 0.251 to 1 nM | COc1cc2c(cc1Nc1nc(Nc3cccc(F)c3C(N)=O)c3cc[nH]c3n1)N(C(=O)CN(C)C)CCC2(C)C [Example 225, 2-[(2-{[1-(N,N-dimethylglycyl)-4,4-dimethyl-6-(methyloxy)-1,2,3,4-tetrahydro-7-quinolinyl]amino}-1H-pyrrolo[2,3-d]pyrimidin-4-yl)amino]-6-fluorobenzamide]
